Among the data in US20260062412A1, “NITROGEN-CONTAINING HETEROCYCLIC COMPOUND HAVING MYT1 INHIBITORY ACTIVITY” (CHUGAI SEIYAKU KABUSHIKI KAISHA, priority 2023, published 2026) are IC50 values, retold here.

Molecules are shown by their SMILES. pIC50: −log10 of the molar value.

One may read the pIC50 as the IC50 on a negative log10 scale, so that one unit is a factor of ten.

This test addresses MYT1 protein (Homo sapiens (Human), UniProt Q99640). Put plainly: Test for binding to ATP binding site of MYT1 (Kinase Tracer 178 / Eu-Anti-GST antibody TR-FRET). The settings on record: ATP binding site of MYT1, 30 minutes at room temperature. (In TR-FRET formats the signal depends on donor and acceptor labels being close together.)

MYT1 protein, sequence (Q99640 whole entry): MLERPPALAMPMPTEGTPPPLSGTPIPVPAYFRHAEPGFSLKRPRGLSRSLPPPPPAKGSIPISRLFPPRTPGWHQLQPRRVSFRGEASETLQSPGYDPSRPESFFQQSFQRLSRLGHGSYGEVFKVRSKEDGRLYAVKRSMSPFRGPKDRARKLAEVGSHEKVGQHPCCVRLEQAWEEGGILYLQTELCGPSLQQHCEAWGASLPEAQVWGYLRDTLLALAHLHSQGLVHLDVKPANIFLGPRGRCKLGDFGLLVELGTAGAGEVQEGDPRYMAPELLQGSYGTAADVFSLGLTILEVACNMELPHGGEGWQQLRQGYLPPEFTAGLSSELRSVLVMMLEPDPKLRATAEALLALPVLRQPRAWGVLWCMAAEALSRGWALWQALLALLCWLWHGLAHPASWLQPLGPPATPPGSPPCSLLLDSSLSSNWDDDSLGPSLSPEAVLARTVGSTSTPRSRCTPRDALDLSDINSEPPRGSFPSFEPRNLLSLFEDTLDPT

In turn, `N#C[C@H]1C[C@@H](Oc2cc3c(-c4ccc(F)c5[nH]ncc45)c(N)c(=O)[nH]c3c3cccnc23)C1` [Compound C33, (1s,3s)-3-[[3-Amino-4-(7-fluoro-1H-indazol-4-yl)-2-oxo-1H-1,7-phenanthrolin-6-yl]oxy]cyclobutane-1-carbonitrile] showed a pIC50 of 8.46.

For the compound `CC[C@H](C)Oc1cc2c(-c3ccc(F)c4[nH]ncc34)c(N)c(=O)[nH]c2c2cccnc12` [Compound C34, 3-Amino-6-[(2S)-butan-2-yl]oxy-4-(7-fluoro-1H-indazol-4-yl)-1H-1,7-phenanthrolin-2-one], the pIC50 was 8.43.

Take `Nc1c(-c2ccc(F)c3[nH]ncc23)c2cc(OC[C@H]3CCCO3)c3ncccc3c2[nH]c1=O` [Compound C35, 3-Amino-4-(7-fluoro-1H-indazol-4-yl)-6-[[(2R)-oxolan-2-yl]methoxy]-1H-1,7-phenanthrolin-2-one]: the pIC50 is 8.36.

In the case of `Nc1c(-c2ccc(F)c3[nH]ncc23)c2cc(OC[C@@H]3CCCO3)c3ncccc3c2[nH]c1=O` [Compound C37, 3-Amino-4-(7-fluoro-1H-indazol-4-yl)-6-[[(2S)-oxolan-2-yl]methoxy]-1H-1,7-phenanthrolin-2-one], the pIC50 was 8.41.

As for `Nc1c(-c2ccc(F)c3[nH]ncc23)c2cc(OCC3(F)CC3)c3ncccc3c2[nH]c1=O` [Compound C38, 3-Amino-6-[(1-fluorocyclopropyl)methoxy]-4-(7-fluoro-1H-indazol-4-yl)-1H-1,7-phenanthrolin-2-one], the pIC50 is 8.24. This pIC50 and that of the compound before are within 0.2 log units of each other.

`Nc1c(-c2ccc(F)c3[nH]ncc23)c2cc(OCC3CC(F)(F)C3)c3ncccc3c2[nH]c1=O` [Compound C39, 3-Amino-6-[(3,3-difluorocyclobutyl)methoxy]-4-(7-fluoro-1H-indazol-4-yl)-1H-1,7-phenanthrolin-2-one]: the pIC50 was 8.19. This pIC50 and that of the compound before are within 0.2 log units of each other.

`Nc1c(-c2ccc(F)c3[nH]ncc23)c2cc(OCC3(F)COC3)c3ncccc3c2[nH]c1=O` [Compound C40, 3-Amino-4-(7-fluoro-1H-indazol-4-yl)-6-[(3-fluorooxetan-3-yl)methoxy]-1H-1,7-phenanthrolin-2-one] showed a pIC50 of 8.40. Against the preceding compound, the pIC50 is 0.21 log units higher.

Consider `Nc1c(-c2ccc(F)c3[nH]ncc23)c2cc(OC3CC4(COC4)C3)c3ncccc3c2[nH]c1=O` [Compound C41, 3-Amino-4-(7-fluoro-1H-indazol-4-yl)-6-(2-oxaspiro[3,3]heptan-6-yloxy)-1H-1,7-one], for which the pIC50 is 8.21.

Consider `Nc1c(-c2ccc(F)c3[nH]ncc23)c2cc(O[C@H]3C[C@H](F)C3)c3ncccc3c2[nH]c1=O` [Compound C42, 3-Amino-6-((1r,3r)-3-fluorocyclobutyl)oxy-4-(7-fluoro-1H-indazol-4-yl)-1H-1,7-phenanthrolin-2-one], for which the pIC50 is 8.57.

Compound `Nc1c(-c2ccc(F)c3[nH]ncc23)c2cc(OCCOC(F)(F)F)c3ncccc3c2[nH]c1=O` [Compound C43, 3-Amino-4-(7-fluoro-1H-indazol-4-yl)-6-[2-(trifluoromethoxy)ethoxy]-1H-1,7-phenanthrolin-2-one] showed a pIC50 of 7.72.

Take `Nc1c(-c2ccc(F)c3[nH]ncc23)c2cc(OCC3(C(F)(F)F)CC3)c3ncccc3c2[nH]c1=O` [Compound C44, 3-Amino-4-(7-fluoro-1H-indazol-4-yl)-6-[[1-(trifluoromethyl)cyclopropyl]methoxy]-1H-1,7-one]: the pIC50 was 8.29. This pIC50 is 0.57 log units higher than that of the compound before.

Compound `CO[C@@H](C)COc1cc2c(-c3ccc(F)c4[nH]ncc34)c(N)c(=O)[nH]c2c2cccnc12` [Compound C45, 3-Amino-4-(7-fluoro-1H-indazol-4-yl)-6-[(2S)-2-methoxypropoxy]-1H-1,7-phenanthrolin-2-one] showed a pIC50 of 8.44.

For `Nc1c(-c2ccc(F)c3[nH]ncc23)c2cc(O[C@@H]3CCCOC3)c3ncccc3c2[nH]c1=O` [Compound C46, 3-Amino-4-(7-fluoro-1H-indazol-4-yl)-6-[(3R)-oxan-3-yl]oxy-1H-1,7-phenanthrolin-2-one], the pIC50 is 8.54.

Consider `Nc1c(-c2ccc(F)c3[nH]ncc23)c2cc(OC3CCS(=O)(=O)CC3)c3ncccc3c2[nH]c1=O` [Compound C47, 3-Amino-6-(1,1-dioxothian-4-yl)oxy-4-(7-fluoro-1H-indazol-4-yl)-1H-1,7-phenanthrolin-2-one], for which the pIC50 is 8.40.

`Nc1c(-c2ccc(F)c3[nH]ncc23)c2cc(OC3CCC(F)(F)CC3)c3ncccc3c2[nH]c1=O` [Compound C48, 3-Amino-6-(4,4-difluorocyclohexyl)oxy-4-(7-fluoro-1H-indazol-4-yl)-1H-1,7-phenanthrolin-2-one] gave a pIC50 of 8.00.

Compound `Nc1c(-c2ccc(F)c3[nH]ncc23)c2cc(OCC34CC(C3)C4)c3ncccc3c2[nH]c1=O` [Compound C49, 3-Amino-6-(1-bicyclo[1.1.1]pentanylmethoxy)-4-(7-fluoro-1H-indazol-4-yl)-1H-1,7-phenanthrolin-2-one] showed a pIC50 of 8.77.

`CO[C@H](C)COc1cc2c(-c3ccc(F)c4[nH]ncc34)c(N)c(=O)[nH]c2c2cccnc12` [Compound C50, 3-Amino-4-(7-fluoro-1H-indazol-4-yl)-6-[(2R)-2-methoxypropoxy]-1H-1,7-phenanthrolin-2-one] had a pIC50 of 8.40.

Compound `Nc1c(-c2ccc(F)c3[nH]ncc23)c2cc(O[C@H]3CCCOC3)c3ncccc3c2[nH]c1=O` [Compound C51, 3-Amino-4-(7-fluoro-1H-indazol-4-yl)-6-[(3S)-oxan-3-yl]oxy-1H-1,7-phenanthrolin-2-one] showed a pIC50 of 8.77.

Turning to `CC1(COc2cc3c(-c4ccc(F)c5[nH]ncc45)c(N)c(=O)[nH]c3c3cccnc23)CC(F)(F)C1` [Compound C52, 3-Amino-6-[(3,3-difluoro-1-methylcyclobutyl)methoxy]-4-(7-fluoro-1H-indazol-4-yl)-1H-1,7-one], the pIC50 is 8.59.

Turning to `COC1(COc2cc3c(-c4ccc(F)c5[nH]ncc45)c(N)c(=O)[nH]c3c3cccnc23)CC1` [Compound C53, 3-Amino-4-(7-fluoro-1H-indazol-4-yl)-6-[(1-methoxycyclopropyl)methoxy]-1H-1,7-phenanthrolin-2-one], the pIC50 is 8.38. This pIC50 is 0.21 log units lower than that of the compound before.

The compound `N#CC1(COc2cc3c(-c4ccc(F)c5[nH]ncc45)c(N)c(=O)[nH]c3c3cccnc23)CC1` [Compound C54, 1-[[3-Amino-4-(7-fluoro-1H-indazol-4-yl)-2-oxo-1H-1,7-phenanthrolin-6-yl]oxymethyl]cyclopropane-1-carbonitrile] gave a pIC50 of 8.85. This pIC50 lies 0.47 log units higher than the previous one.

Regarding `N#CC1(COc2cc3c(-c4ccc(F)c5[nH]ncc45)c(N)c(=O)[nH]c3c3cccnc23)CCC1` [Compound C55, 1-[[3-Amino-4-(7-fluoro-1H-indazol-4-yl)-2-oxo-1H-1,7-phenanthrolin-6-yl]oxymethyl]cyclobutane-1-carbonitrile], the pIC50 was 9.04.

`Nc1c(-c2ccc(F)c3[nH]ncc23)c2cc(OCC3(F)CCC3)c3ncccc3c2[nH]c1=O` [Compound C56, 3-Amino-6-[(1-fluorocyclobutyl)methoxy]-4-(7-fluoro-1H-indazol-4-yl)-1H-1,7-phenanthrolin-2-one] had a pIC50 of 8.77.

Regarding `Nc1c(-c2ccc(F)c3[nH]ncc23)c2cc(OC3CC(C(F)(F)F)C3)c3ncccc3c2[nH]c1=O` (stereo not drawn) [Compound C57, 3-Amino-4-(7-fluoro-1H-indazol-4-yl)-6-[3-(trifluoromethyl)cyclobutyl]oxy-1H-1,7-one], the pIC50 was 8.60.
